According to ChEMBL document CHEMBL1154851, “Synthesis, antibacterial and antifungal activities of 6,5 fused steroidal oxazoles in cholestane series” (2010):
Values after ≈ are worked out from the molar mass of the structure shown.

How the values were obtained:
Streptococcus pyogenes [1] = assay: Antimicrobial activity against Streptococcus pyogenes after 18 hrs by macrodilution test; format: functional
Fusarium oxysporum [2] = assay: Antimicrobial activity against Fusarium oxysporum at 100 ug/ml after 48 hrs by disk diffusion method; format: functional; conditions: read-out: DIZ
Streptococcus pyogenes [3] = assay: Antimicrobial activity against Streptococcus pyogenes after 18 hrs by disk diffusion method; format: functional
Escherichia coli [4] = assay: Antimicrobial activity against Escherichia coli after 18 hrs by disk diffusion method; format: functional
Aspergillus niger [5] = assay: Antimicrobial activity against Aspergillus niger at 100 ug/ml after 48 hrs by disk diffusion method; format: functional; conditions: read-out: DIZ
Staphylococcus aureus [6] = assay: Antimicrobial activity against Staphylococcus aureus after 18 hrs by macrodilution test; format: functional
Pseudomonas aeruginosa [7] = assay: Antimicrobial activity against Pseudomonas aeruginosa after 18 hrs by macrodilution test; format: functional
Penicillium [8] = assay: Antimicrobial activity against Penicillium at 100 ug/ml after 48 hrs by disk diffusion method; format: functional; conditions: read-out: DIZ
Bacillus subtilis [9] = assay: Antimicrobial activity against Bacillus subtilis after 18 hrs by macrodilution test; format: functional
Salmonella enterica [10] = assay: Antimicrobial activity against Salmonella Typhimurium after 18 hrs by macrodilution test; format: functional, Salmonella enterica subsp. enterica serovar Typhimurium
Nakaseomyces glabratus [11] = assay: Antimicrobial activity against Candida glabrata at 100 ug/ml after 48 hrs by disk diffusion method; format: functional; conditions: read-out: DIZ
Pseudomonas aeruginosa [12] = assay: Antimicrobial activity against Pseudomonas aeruginosa after 18 hrs by disk diffusion method; format: functional
Escherichia coli [13] = assay: Antimicrobial activity against Escherichia coli after 18 hrs by macrodilution test; format: functional
Staphylococcus aureus [14] = assay: Antimicrobial activity against Staphylococcus aureus after 18 hrs by disk diffusion method; format: functional
Bacillus subtilis [15] = assay: Antimicrobial activity against Bacillus subtilis after 18 hrs by disk diffusion method; format: functional
Salmonella enterica [16] = assay: Antimicrobial activity against Salmonella Typhimurium after 18 hrs by disk diffusion method; format: functional, Salmonella enterica subsp. enterica serovar Typhimurium
Candida albicans [17] = assay: Antimicrobial activity against Candida albicans at 100 ug/ml after 48 hrs by disk diffusion method; format: functional; conditions: read-out: DIZ
Candida albicans [18] = assay: Antimicrobial activity against Candida albicans at 30 ug after 48 hrs by disk diffusion method; format: functional, organism-based
Fusarium oxysporum [19] = assay: Antimicrobial activity against Fusarium oxysporum at 30 ug after 48 hrs by disk diffusion method; format: functional, organism-based
Nakaseomyces glabratus [20] = assay: Antimicrobial activity against Candida glabrata at 30 ug after 48 hrs by disk diffusion method; format: functional, organism-based
Aspergillus niger [21] = assay: Antimicrobial activity against Aspergillus niger at 30 ug after 48 hrs by disk diffusion method; format: functional, organism-based
Penicillium [22] = assay: Antimicrobial activity against Penicillium at 30 ug after 48 hrs by disk diffusion method; format: functional, organism-based

Row | Compound | MIC (Streptococcus pyogenes [1]) [µg/mL] | zone of inhibition at 100 µg/mL (Fusarium oxysporum [2]) [mm] | inhibition zone (IZ) (Streptococcus pyogenes [3]) [mm] | inhibition zone (IZ) (Escherichia coli [4]) [mm] | zone of inhibition at 100 µg/mL (Aspergillus niger [5]) [mm] | MIC (Staphylococcus aureus [6]) [µg/mL] | MIC (Pseudomonas aeruginosa [7]) [µg/mL] | zone of inhibition at 100 µg/mL (Penicillium [8]) [mm] | MIC (Bacillus subtilis [9]) [µg/mL] | MIC (Salmonella enterica [10]) [µg/mL] | zone of inhibition at 100 µg/mL (Nakaseomyces glabratus [11]) [mm] | inhibition zone (IZ) (Pseudomonas aeruginosa [12]) [mm] | MIC (Escherichia coli [13]) [µg/mL] | inhibition zone (IZ) (Staphylococcus aureus [14]) [mm] | inhibition zone (IZ) (Bacillus subtilis [15]) [mm] | inhibition zone (IZ) (Salmonella enterica [16]) [mm] | zone of inhibition at 100 µg/mL (Candida albicans [17]) [mm] | also measured
1 | CC(C)CCC[C@@H](C)[C@H]1CC[C@H]2[C@@H]3C=C4N=C(N)O[C@@]45CCCC[C@]5(C)[C@H]3CC[C@]12C | 256 (≈ 600 µM) | 10.1 | 11.2 | 13.1 | 10.1 | 128 (≈ 300 µM) | 128 (≈ 300 µM) | 14.5 | 128 (≈ 300 µM) | 128 (≈ 300 µM) | 9.2 | 13.5 | 256 (≈ 600 µM) | 10.8 | 12.1 | 11.5 | 19.1 | –
2 | CC(=O)O[C@H]1CC[C@]2(C)[C@H]3CC[C@]4(C)[C@@H]([C@H](C)CCCC(C)C)CC[C@H]4[C@@H]3C=C3N=C(N)O[C@@]32C1 | 128 (≈ 264 µM) | 12.1 | 12.5 | 14.1 | 11.2 | 128 (≈ 264 µM) | 64 (≈ 132 µM) | 15.1 | 32 (≈ 66 µM) | 128 (≈ 264 µM) | 10.1 | 15 | 128 (≈ 264 µM) | 12.8 | 13.1 | 13.2 | 20.1 | –
3 | O=C(N[C@H](CO)[C@H](O)c1ccc([N+](=O)[O-])cc1)C(Cl)Cl [CHLORAMPHENICOL] | 32 (≈ 99 µM) | – | 22.4 | 20 | – | 32 (≈ 99 µM) | 32 (≈ 99 µM) | – | 32 (≈ 99 µM) | 32 (≈ 99 µM) | – | 17.1 | 32 (≈ 99 µM) | 21 | 26.8 | 25.2 | – | –
4 | CC(C)CCC[C@@H](C)[C@H]1CC[C@H]2[C@@H]3C=C4N=C(N)O[C@@]45C[C@@H](Cl)CC[C@]5(C)[C@H]3CC[C@]12C | 128 (≈ 278 µM) | 13.1 | 15.1 | 16.1 | 12.5 | 64 (≈ 139 µM) | 64 (≈ 139 µM) | 16.2 | 64 (≈ 139 µM) | 64 (≈ 139 µM) | 15.2 | 16.5 | 128 (≈ 278 µM) | 15.1 | 15.2 | 14.1 | 21.5 | –
5 | NYSTATIN | – | – | – | – | – | – | – | – | – | – | – | – | – | – | – | – | – | inhibition zone (IZ) (Candida albicans [18]): 29 mm; inhibition zone (IZ) (Fusarium oxysporum [19]): 19.5 mm; inhibition zone (IZ) (Nakaseomyces glabratus [20]): 29 mm; inhibition zone (IZ) (Aspergillus niger [21]): 19.5 mm; inhibition zone (IZ) (Penicillium [22]): 24.5 mm
